Measured values reported in patent publication US20080039471A1, “Composition and method to inhibit tissue plasminogen activator (tPA) - potentiated neurotoxicity” (priority 2006, published 2008).

Tests used:
[1] = test system: embryonic (E18) rat cortical and striatal neurons; assay: Morphological changes, glutamate / tPA insult (Example 1); type: cell-based; conditions: 15 μM glutamate, 20 μg/ml tPA, insult 24 hours
Experimental: (§1) A mixed culture of embryonic (E18) rat cortical and striatal neurons was cultured for 22 days in 50% antioxidative (AO) neurobasal medium (made by replacing 50% of the neurobasal culture medium with a medium comprised of neurobasal plus B27 supplement (minus AO, i.e., without the antioxidants vitamin E, vitamin E acetate, 2.5 mg/L superoxide dismutase, 2.5 mg/L catalase, and 1 mg/L glutathione) (from Invitrogen)), and then divided into test groups in accordance with the following scheme: (1) not insulted (control); (2) insulted with 15 μM glutamate; (3) insulted with 20 μg/ml tPA; or (4) insulted with both 15 μM glutamate and 20 μg/ml tPA, for a period of 24 hours. In a further test category, neurons that were to be insulted for 24 hours with the combination of 15 μM glutamate and 20 μg/ml tPA, were divided into groups in which (1) cells were not pre-treated prior to insult; (2) were pretreated overnight with 1:12,500 vehicle (used for PAN-811), or (3) were pre-treated overnight with PAN-811 (in vehicle).
The experimental results were evaluated by morphological changes, lactate dehydrogenase (LDH) and MTS (mitochondrial function) analyses.

[2] = test system: embryonic (E18) rat cortical and striatal neurons; assay: LDH assay, glutamate / tPA insult (Example 1); type: cell-based
Experimental: For this example PAN-811 was dissolved in PEG:EtOH (7:3) to a concentration of 25 mM, and further diluted in neurobasal medium to a final concentration of 2 μM. The control vehicle is 1:12,500 PEG:EtOH (7:3 in BSS).
as §1
(§2) The lactate dehydrogenase (LDH) assay (Promega) is based on the reduction of NAD by the action of LDH. The resulting reduced NAD (NADH) is utilized in the stoichiometric conversion of a tetrazolium dye. If cell-free aliquots of medium from cultures given different treatments are assayed, then the amount of LDH activity can be used as an indicator of relative cell death as well as a function of membrane integrity. A 50 μl aliquot of culture medium from a well in tested 96-well plate is transferred into a well in unused plate and supplemented with 25 μl of equally-mixed Substrate, Enzyme and Dye Solutions (Sigma). The preparation is incubated at room temperature for 20-30 minutes, and then measured spectrophotometrically at wavelength of 490 nm.

[3] = test system: embryonic (E18) rat cortical and striatal neurons; assay: MTS (mitochondrial function) assay, glutamate / tPA insult (Example 1); type: cell-based; conditions: 15 μM glutamate, 20 μg/ml tPA, insult 24 hours
Experimental: as §1, with “In a further test category, neurons that were to be insulted for 24 hours with the combination of 15 μM glutamate and 20 μg/ml tPA, were divided into groups in which (1) cells were not pre-treated prior to insult; (2) were pretreated overnight with 1:12,500 vehicle (used for PAN-811), or (3) were pre-treated overnight with PAN-811 (in vehicle).” left out
The 3-(4,5-dimethylthiazol-2-yl)-5-(3-carboxymethoxyphenyl)-2-(4-sulfophenyl)-2H-tetrazolium (MTS) assay (Promega) is routinely used to evaluate mitochondrial function, and reduced readings are correlated with neuronal cell death. The MTS tetrazolium compound is reduced in metabolically active mitochondria into a colored formazan product that is soluble in tissue culture medium, and can be detected via its absorbance 490 nm. […] The absorbance at 490 nm was recorded using a Bio-Rad 96 well plate reader.

[4] = systematic administration (Jiang et al.); cited from earlier work
[5] = test system: embryonic (E18) rat cortical and striatal neurons; assay: LDH assay, hypoglycemia/hypoxia (H/H) and tPA insult (Example 2); type: cell-based
Experimental: as §2
In this example, PAN-811 was dissolved in PEG:EtOH (7:3) to a concentration of 25 mM, and further diluted in neurobasal medium to final concentrations of 1.25, 2.5, 5 and 10 μM. The control vehicle is 1:10,000 PEG:EtOH (7:3 in BSS).
(§3) A mixed culture of embryonic (E18) rat cortical and striatal neurons was cultured for 13 days in neurobasal medium (Invitrogen), then insulted by hypoglycemia/hypoxia (H/H) conditions for 6 hours, or a combination of H/H and 20 μg/ml tPA. The H/H conditions were 1.2 mM glucose (normally 25 mM in culture medium) and the absence of oxygen for 6 hours. (Following H/H conditions, the cultures were returned to the typical conditions of 25 mM glucose medium and 95% ambient air plus 5% CO2.)
(§4) In a further experiment, cells that were under H/H conditions and also treated with the tPA were divided into groups, which were either co-treated or post-treated (i.e., during or after the 6 hour insult period) with control vehicle or each of PAN-811 at concentrations of 1.25, 2.5, 5 and 10 μM.

[6] = single 2-h infusion every 4 weeks, cited from earlier work
[7] = test system: embryonic (E18) rat cortical and striatal neurons; assay: Morphological changes, H/H and tPA insult (Example 2); type: cell-based
Experimental: as §3, §4
The experimental results were evaluated by morphological changes, and LDH and MTS analyses.

[8] = test system: embryonic (E18) rat cortical and striatal neurons; assay: MTS assay, H/H and tPA insult (Example 2); type: cell-based; conditions: H/H 6 hours combined with 20 μg/ml tPA
Experimental: The 3-(4,5-dimethylthiazol-2-yl)-5-(3-carboxymethoxyphenyl)-2-(4-sulfophenyl)-2H-tetrazolium (MTS) assay (Promega) is routinely used to evaluate mitochondrial function, and reduced readings are correlated with neuronal cell death. The MTS tetrazolium compound is reduced in metabolically active mitochondria into a colored formazan product that is soluble in tissue culture medium, and can be detected via its absorbance 490 nm. 10 μl of MTS reagent (Promega) are added to each well of the 96 well assay plates containing the samples in 50 μl of culture medium. The plate is then incubated in a humidified, 5% CO2 atmosphere at 37° C. for 1-2 hours until the color is fully developed. The absorbance at 490 nm was recorded using a Bio-Rad 96 well plate reader.
as §3

[9] = test system: tPA-potentiated, NMDA-mediated, excitotoxic neuronal death; conditions: cited from earlier work

N[C@@H](CCC(=O)O)C(=O)O [glutamate, reference compound]
morphology of neurons [1]: strong neuronal cell death | increase in LDH over the control ([2]; 15 μM glutamate, 20 μg/ml tPA, insult 24 hours): 4.4 fold | reduction in the MTS reading over the control [3]: 13%

NC(=S)N/N=C/c1ncccc1N [PAN-811, 3-aminopyridine-2-carboxaldehyde thiosemicarbazone]
passage of the BBB [4]: will pass the BBB | reduction of LDH reading as compared to no pre-treatment or control vehicle ([2]; pre-treated overnight with 2 μM PAN-811, insult 15 μM glutamate and 20 μg/ml tPA, 24 hours): about 11% | neuroprotection (LDH readings) ([5]; 1.25 μM PAN-811, H/H and tPA): effective in significantly reducing LDH readings | protection (LDH) ([5]; 5 μM PAN-811 post-insult (H/H and tPA)): 51% | decrease of LDH reading ([5]; co-treated with 5 μM PAN-811 during H/H and tPA insult): 23% | dose dependence of protection ([5]; co-treatment or post-treatment, 1.25, 2.5, 5 and 10 μM, H/H and tPA): showed a dose response correlation | well tolerated dose ([6]; 46 courses of therapy): up to 105 mg/m^2 | dose limiting toxicity ([6]; doses up to 105 mg/m^2): not identified | neuronal morphology ([7]; co- or post-treatment, 1.25-10 μM PAN-811, H/H and tPA conditions): preserved neuronal morphology

tPA: Recombinant tissue-type plasminogen activator, a thrombolytic-acting drug approved for ischemic stroke
morphology of neurons [1]: neurons remained healthy | toxicity to neurons by LDH assay ([2]; 20 μg/ml tPA alone, 24 hours): not toxic | enhancement in the LDH reading over control ([5]; H/H 6 hours combined with 20 μg/ml tPA): 3.3 fold | reduction in the MTS reading over the control [3]: did not cause any reduction | morphology, neuronal cell death ([7]; H/H combined with 20 μg/ml tPA, by 17 hours post-insult): robust neuronal cell death | decrease of MTS reading [8]: 51%

Cl.Cl.N=C(N)c1ccc(C=C2CCCCC(=Cc3ccc(C(=N)N)cc3)C2=O)cc1 [tPA-Stop™, 2,7-bis-(4-amidino-benzylidene)-cycloheptan-1-one dihydrochloride]
effect on alpha-amino-2,3-dihydro-5-methyl-3-oxo-4-isoxazole propanoic acid or kainate-mediated necrosis [9]: fails to modulate | effect on tPA-potentiated, NMDA-mediated, excitotoxic neuronal death [9]: effective in reducing
